Reference: patent US20260201008A1, “SECRETIN-DERIVED GLP1R SELECTIVE AGONISTS” (GUBRA A/S, priority 2023, published 2026)
Where two headings read alike, the source gives them in different places. Numbered stars: 1 amine (or outer) side, 2 acyl side, 3 side chain; on linkers, the order of the positions; unused ones are H or OH. Square brackets hold non-standard residues; d marks the D form. Side chains are listed from the residue outwards. Peptide text beside a SMILES is read from it. * marks the point of attachment. C20 diacid = O=C(O)CCCCCCCCCCCCCCCCCCC(=O)*; γGlu = O=C(O)[C@H](CCC(=O)[*:2])N[*:1]; AEEA = NCCOCCOCC(=O)O; Aib = CC(C)(N)C(=O)O

Key:
[1] = Turbidity of crude library peptides (absorbance at 600 nm); assay type: physicochemical; settings: Physical stability of peptides
Summary of the method: (§1)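 Fibril formation is scored as average ThT fluorescence from duplicate samples monitored for 72 h at 40° C with shaking stress. Turbidity is the absorbance at 600 nm taken before heating. Peptide concentration was 267 μM at pH 4.0 or pH 7.0.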

[2] = Fibril formation of crude library peptides (Thioflavin T); assay type: physicochemical; set-up: key: average ThT fluorescence emission at 480 nm (ex 450 nm), raw units; settings: Physical stability of peptides
Summary of the method: as §1

GLP1R = GLP1R (Homo sapiens, UniProt P43220); assay: hGLP1R potency, cAMP accumulation in CHO-K1 cells stably overexpressing hGLP1R; assay type: cell-based; set-up: host or cells: CHO-K1; settings: for Selectivity: SCTR EC50/GLP1R EC50 ratio; for EC50: cAMP accumulation, CHO-K1 cells overexpressing hGLP1R
GLP1R, sequence (P43220 24-463): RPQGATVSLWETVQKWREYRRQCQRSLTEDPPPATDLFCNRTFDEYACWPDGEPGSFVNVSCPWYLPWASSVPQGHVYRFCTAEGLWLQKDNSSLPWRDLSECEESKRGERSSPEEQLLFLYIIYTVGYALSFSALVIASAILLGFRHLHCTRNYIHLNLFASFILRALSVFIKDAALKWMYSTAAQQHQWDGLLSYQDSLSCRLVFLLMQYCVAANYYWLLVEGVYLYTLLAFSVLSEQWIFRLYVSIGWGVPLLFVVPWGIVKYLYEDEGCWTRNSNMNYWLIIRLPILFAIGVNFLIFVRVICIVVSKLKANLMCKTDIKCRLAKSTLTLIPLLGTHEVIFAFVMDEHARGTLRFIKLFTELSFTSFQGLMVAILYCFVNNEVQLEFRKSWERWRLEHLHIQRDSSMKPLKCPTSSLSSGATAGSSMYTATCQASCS
Summary of the method: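 In the presence of 0.5 mM IBMX, compounds stimulated the cells for 30 minutes at room temperature. Accumulated cAMP was then detected by TR-FRET, with EC50 values fitted by variable-slope nonlinear regression.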

SCTR = SCTR (Homo sapiens, UniProt P47872); assay: hSCTR potency, cAMP accumulation in CHO-K1 cells stably overexpressing hSCTR; assay type: cell-based; set-up: alternatively Euroscreen ES-712-AF; FAST-0161L; host or cells: CHO-K1; settings: cAMP accumulation, CHO-K1 cells overexpressing hSCTR
SCTR, sequence (P47872 23-440): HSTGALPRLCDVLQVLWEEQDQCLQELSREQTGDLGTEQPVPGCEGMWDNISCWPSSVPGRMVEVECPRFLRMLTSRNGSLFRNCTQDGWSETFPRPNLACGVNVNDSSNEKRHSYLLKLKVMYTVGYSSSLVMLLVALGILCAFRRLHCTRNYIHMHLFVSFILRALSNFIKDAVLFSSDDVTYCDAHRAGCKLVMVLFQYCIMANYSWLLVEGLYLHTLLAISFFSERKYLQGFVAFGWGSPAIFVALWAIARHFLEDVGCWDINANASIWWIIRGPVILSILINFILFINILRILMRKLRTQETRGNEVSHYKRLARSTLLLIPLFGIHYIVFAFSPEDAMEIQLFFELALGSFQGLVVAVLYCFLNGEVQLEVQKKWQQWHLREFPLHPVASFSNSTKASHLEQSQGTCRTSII
Summary of the method: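 In this Gs cAMP assay, stably transfected CHO-K1 hSCTR cells were stimulated at room temperature for 30 min in IBMX-containing buffer. Time-resolved FRET gave the signal. Replicates were increased when the top concentration changed or EC50 values differed 5-fold.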

[3] = read-out: pEC50 hGLPR1 (converted)
[4] = read-out: pEC50 hSCTR (converted)

Structure (SMILES)	Turbidity (pH 7) [1]	Fibril formation [2]	Selectivity (GLP1R)	EC50 (GLP1R; [3]) [nM]	EC50 (SCTR; [4]) [nM]	EC50 (GLP1R; read-out: hGLP1R pEC50 (converted)) [nM]	SCTR EC50/GLP1R EC50 ratio (GLP1R; selectivity for hGLP1R over hSCTR, cAMP accumulation in CHO-K1 cells)	EC50 (SCTR; read-out: hSCTR pEC50 (converted)) [nM]
CC(C)C[C@H](NC(=O)[C@H](Cc1ccccc1)NC(=O)[C@H](CCCNC(=N)N)NC(=O)[C@H](CCC(N)=O)NC(=O)[C@H](CO)NC(=O)[C@H](C)NC(=O)[C@H](C)NC(=O)[C@H](CCC(=O)O)NC(=O)[C@H](CCC(=O)O)NC(=O)[C@H](CCCCNC(=O)COCCOCCNC(=O)COCCOCCNC(=O)CC[C@H](NC(=O)CCCCCCCCCCCCCCCCCCC(=O)O)C(=O)O)NC(=O)[C@H](CC(C)C)NC(=O)[C@@H](NC(=O)[C@H](CO)NC(=O)[C@@H](NC(=O)[C@H](CC(=O)O)NC(=O)[C@H](CO)NC(=O)[C@@H](NC(=O)[C@H](Cc1ccccc1)NC(=O)[C@@H](NC(=O)CNC(=O)[C@H](CCC(=O)O)NC(=O)C(C)(C)NC(=O)[C@@H](N)Cc1c[nH]cn1)[C@@H](C)O)[C@@H](C)O)C(C)C)[C@@H](C)O)C(=O)N[C@@H](CCC(=O)O)C(=O)N[C@@H](Cc1c[nH]cn1)C(=O)N[C@@H](CC(C)C)C(=O)N[C@H](C(N)=O)C(C)C [compound 6] (H-H[Aib]EGTFTSDVSTLK([AEEA-AEEA-γGlu-C20 diacid])EEAASQRFLEHLV-NH2)	0.09	6489	11820	0.0316	316			
CC(C)C[C@H](NC(=O)[C@H](Cc1ccccc1)NC(=O)[C@H](CCCNC(=N)N)NC(=O)[C@H](CCC(N)=O)NC(=O)[C@H](CO)NC(=O)[C@H](C)NC(=O)[C@H](C)NC(=O)[C@H](Cc1ccccc1)NC(=O)[C@H](CCC(=O)O)NC(=O)[C@H](CCCCNC(=O)COCCOCCNC(=O)COCCOCCNC(=O)CC[C@H](NC(=O)CCCCCCCCCCCCCCCCCCC(=O)O)C(=O)O)NC(=O)[C@H](CC(C)C)NC(=O)[C@H](CCC(=O)O)NC(=O)[C@H](CO)NC(=O)[C@@H](NC(=O)[C@H](CC(=O)O)NC(=O)[C@H](CO)NC(=O)[C@@H](NC(=O)[C@H](Cc1ccccc1)NC(=O)[C@@H](NC(=O)CNC(=O)[C@H](CCC(=O)O)NC(=O)C(C)(C)NC(=O)[C@@H](N)Cc1c[nH]cn1)[C@@H](C)O)[C@@H](C)O)C(C)C)C(=O)N[C@@H](CCC(=O)O)C(=O)N[C@@H](Cc1c[nH]cn1)C(=O)N[C@@H](CC(C)C)C(=O)N[C@H](C(N)=O)C(C)C [compound 8] (H-H[Aib]EGTFTSDVSELK([AEEA-AEEA-γGlu-C20 diacid])EFAASQRFLEHLV-NH2)	0.09	259534	30095	0.0501	1580			
CC(C)C[C@H](NC(=O)[C@H](Cc1ccccc1)NC(=O)[C@H](CCCNC(=N)N)NC(=O)[C@H](CCC(N)=O)NC(=O)[C@H](CCC(=O)O)NC(=O)[C@H](C)NC(=O)[C@H](C)NC(=O)[C@H](Cc1ccccc1)NC(=O)[C@H](CCC(=O)O)NC(=O)[C@H](CCCCNC(=O)COCCOCCNC(=O)COCCOCCNC(=O)CC[C@H](NC(=O)CCCCCCCCCCCCCCCCCCC(=O)O)C(=O)O)NC(=O)[C@H](CC(C)C)NC(=O)[C@@H](NC(=O)[C@H](CO)NC(=O)[C@@H](NC(=O)[C@H](CC(=O)O)NC(=O)[C@H](CO)NC(=O)[C@@H](NC(=O)[C@H](Cc1ccccc1)NC(=O)[C@@H](NC(=O)CNC(=O)[C@H](CCC(=O)O)NC(=O)C(C)(C)NC(=O)[C@@H](N)Cc1c[nH]cn1)[C@@H](C)O)[C@@H](C)O)C(C)C)[C@@H](C)O)C(=O)N[C@@H](CCC(=O)O)C(=O)N[C@@H](Cc1c[nH]cn1)C(=O)N[C@@H](CC(C)C)C(=O)N[C@H](C(N)=O)C(C)C [compound 89] (H-H[Aib]EGTFTSDVSTLK([AEEA-AEEA-γGlu-C20 diacid])EFAAEQRFLEHLV-NH2)	0.08	14469				0.02	81527	2000
